# In PMC3726442 (PLoS ONE, 2013):
# Assays:
# [1] = test system: CYP3A4/5; parameters: method as in PMID 19088019; settings: major primary metabolite, CYP3A4/5-mediated; cited from earlier work
# [2] = Plasma concentrations of tamoxifen and its metabolites in breast cancer patients on tamoxifen, by HPLC-tandem mass spectrometry
# [3] = all samples analyzed, n = 125, before daily 20 mg TAM dose
smiles,measurement,setting,value
CC/C(=C(\c1ccccc1)c1ccc(OCCNC)cc1)c1ccccc1 [N-desmethyl-tamoxifen],share of primary TAM oxidation,[1],90%
same,mean plasma concentration (±SD),[2]; [3],450.54 ± 188.79 ng/mL
same,median plasma concentration,[2]; [3],418.46 ng/mL
same,mean concentration relative to the TAM concentration,"[2]; all samples, n = 125",over 2 times
same,"plasma concentration, mean ±SD","[2]; genotype SULT1A1 *2/*2, n = 15",459.42 ± 160.94 ng/mL
same,"plasma concentration, median","[2]; genotype SULT1A1 *2/*2, n = 15",432.49 ng/mL
same,"plasma concentration, range","[2]; genotype SULT1A1 *2/*2, n = 15",(212.67–782.92) ng/mL
same,"plasma concentration, mean ±SD","[2]; genotype SULT1A1 wt/*2, n = 46",441.63 ± 176.28 ng/mL
same,"plasma concentration, median","[2]; genotype SULT1A1 wt/*2, n = 46",418.46 ng/mL
same,"plasma concentration, range","[2]; genotype SULT1A1 wt/*2, n = 46",(196.74–1191.13) ng/mL
same,"plasma concentration, mean ±SD","[2]; genotype SULT1A1 wt/wt, n = 60",458.09 ± 209.96 ng/mL
same,"plasma concentration, median","[2]; genotype SULT1A1 wt/wt, n = 60",411.53 ng/mL
same,"plasma concentration, range","[2]; genotype SULT1A1 wt/wt, n = 60",(35.96–1210.09) ng/mL
same,"plasma concentration, mean ±SD","[2]; genotype SULT1A2 *2/*2, n = 16",453.17 ± 128.87 ng/mL
same,"plasma concentration, median","[2]; genotype SULT1A2 *2/*2, n = 16",427.03 ng/mL
same,"plasma concentration, range","[2]; genotype SULT1A2 *2/*2, n = 16",(238.36–782.92) ng/mL
same,"plasma concentration, mean ±SD","[2]; genotype SULT1A2 *2/*3, n = 13",478.66 ± 162.35 ng/mL
same,"plasma concentration, median","[2]; genotype SULT1A2 *2/*3, n = 13",527.52 ng/mL
same,"plasma concentration, range","[2]; genotype SULT1A2 *2/*3, n = 13",(228.81–676.02) ng/mL
same,"plasma concentration, mean ±SD","[2]; genotype SULT1A2 *3/*3, n = 5",478.49 ± 198.83 ng/mL
same,"plasma concentration, median","[2]; genotype SULT1A2 *3/*3, n = 5",485.02 ng/mL
same,"plasma concentration, range","[2]; genotype SULT1A2 *3/*3, n = 5",(242.88–768.62) ng/mL
same,"plasma concentration, mean ±SD","[2]; genotype SULT1A2 wt/*2, n = 33",478.01 ± 247.44 ng/mL
same,"plasma concentration, median","[2]; genotype SULT1A2 wt/*2, n = 33",399.40 ng/mL
same,"plasma concentration, range","[2]; genotype SULT1A2 wt/*2, n = 33",(212.67–1210.09) ng/mL
same,"plasma concentration, mean ±SD","[2]; genotype SULT1A2 wt/*3, n = 16",425.36 ± 207.64 ng/mL
same,"plasma concentration, median","[2]; genotype SULT1A2 wt/*3, n = 16",324.21 ng/mL
same,"plasma concentration, range","[2]; genotype SULT1A2 wt/*3, n = 16",(167.40–952.85) ng/mL
same,"plasma concentration, mean ±SD","[2]; genotype SULT1A2 wt/wt, n = 38",428.02 ± 162.17 ng/mL
same,"plasma concentration, median","[2]; genotype SULT1A2 wt/wt, n = 38",413.16 ng/mL
same,"plasma concentration, range","[2]; genotype SULT1A2 wt/wt, n = 38",(35.96–847.98) ng/mL
same,"plasma concentration, mean ±SD","[2]; genotype SULT1E1 *2/*2, n = 5",455.57 ± 104.52 ng/mL
same,"plasma concentration, median","[2]; genotype SULT1E1 *2/*2, n = 5",497.51 ng/mL
same,"plasma concentration, range","[2]; genotype SULT1E1 *2/*2, n = 5",(311.12–550.12) ng/mL
same,"plasma concentration, mean ±SD","[2]; genotype SULT1E1 wt/*2, n = 28",462.59 ± 167.53 ng/mL
same,"plasma concentration, median","[2]; genotype SULT1E1 wt/*2, n = 28",426.41 ng/mL
same,"plasma concentration, range","[2]; genotype SULT1E1 wt/*2, n = 28",(196.74–768.62) ng/mL
same,"plasma concentration, mean ±SD","[2]; genotype SULT1E1 wt/wt, n = 88",448.30 ± 202.82 ng/mL
same,"plasma concentration, median","[2]; genotype SULT1E1 wt/wt, n = 88",399.40 ng/mL
